From patent US12643875B2, “Antibacterial compounds” (The Penn State Research Foundation, priority 2020, dated 2026)
Converted amounts (≈) assume the structure as drawn. Read-outs that look alike come from different tables or passages of the source.

How the values were obtained:
bacteria = assay: Bacterial growth inhibition, broth microdilution (CLSI M07-A10); assay type: cell-based; conditions: for IC50: growth inhibition
Excerpt: Assay: Broth microdilution by the method of: Clinical and Laboratory Standards Institute, Ed., Methods for dilution antimicrobial susceptibility tests for bacteria that grow aerobically: M07-A10; approved standard (Committee for Clinical Laboratory Standards, Wayne, PA, 10. ed., 2015), Documents/Clinical and Laboratory Standards Institute.

[1] = test system: HUVEC (Human Umbilical Vein Endothelial Cells); assay: Cytotoxicity, propidium iodide fluorescence, HuVEC cells; assay type: cell-based; parameters: key: % cytotoxicity relative to positive control (100% cell lysis); conditions: 24 h, relative to positive control (100% cell lysis)
Method: (§1) Assay: HUVEC (Human Umbilical Vein Endothelial Cells) and HeLa (cervical cancer cells) were seeded into 96-well culture plates at a density of 1.5×10^5 cells/ml in endothelial cell or DMEM growth medium, supplemented with 10% fetal bovine serum and no antibiotic. Cells were cultured for 24 h before assay setup. Compounds were diluted in the corresponding growth medium and tested in triplicate at 10× and 20× the minimum bacterial growth inhibitory concentrations. Growth media in the 96-well plate was aspirated off and replaced with media containing the test compounds or DMSO (0.5%, vol/vol). The plates were incubated at 37° C. in a 5% CO2 incubator for 24 h. A positive control sample was prepared by replacing media in designated wells with a solution containing a cell lysis reagent. Propidium iodide was then added at 5 μM/well and the plate was incubated for 10 minutes at room temperature. Fluorescence was then recorded using a SpectraMax i3 (Molecular Devices) at λex 535 nm/λem 617 nm. Cytotoxicity was determined by quantifying the fluorescence values for each compound relative to the positive control (100% cell lysis). For selected exemplified compounds, cytotoxicity against HeLa and HuVEC cells was measured at 10× and 20×MIC.

[2] = test system: HeLa (cervical cancer cells); assay: Cytotoxicity, propidium iodide fluorescence, HeLa cells; assay type: cell-based, Human; parameters: key: % cytotoxicity relative to positive control (100% cell lysis); conditions: 24 h, relative to positive control (100% cell lysis)
Method: as §1

Serum binding = assay type: in vitro ADME
Plasma binding = assay type: in vitro ADME; conditions: for free compound: serum and plasma binding
[3] = test system: σ^E-mediated transcription; assay: σ^E-mediated transcription inhibition, E. coli reporter assay; assay type: cell-based; conditions: Escherichia coli
Method: The selected exemplified compounds were tested for inhibition of σ^E-mediated transcription using an E. coli reporter assay according to the protocol described in U.S. Pat. No. 8,962,550, which is incorporated herein by reference.

CYP (isoform not given) = assay: HLM CYP inhibition; conditions: human, human liver microsomes
CYP [4] = assay: HLM CYP inhibition
[5] = Stability in human liver microsomes (intrinsic clearance)
[6] = Solubility in growth medium of the transcription assay; assay type: physicochemical; parameters: key: *: poor solubility in test medium
CYP [7] = test system: CYP

Cc1cc(F)ccc1-c1cccc(NS(=O)(=O)c2ccccc2)n1 [Compound 39705]
MIC (bacteria): 34 µg/mL (≈ 99.3 µM)
IC50 (bacteria): 16 µg/mL (≈ 46.7 µM)

O=C(Nc1cccc(-c2ccccc2)c1)c1cccc(C(F)(F)F)c1 [Compound 39751]
Cytotoxicity at 10× MIC HuVEC [1]: 17
Cytotoxicity at 20× MIC HuVEC [1]: 14
Cytotoxicity at 10× MIC HeLa [2]: 9
Cytotoxicity at 20× MIC HeLa [2]: 7
% serum binding (Serum binding): 99.9%
MIC (bacteria): 8.5 µg/mL (≈ 24.9 µM)
IC50 (bacteria): 4.6 µg/mL (≈ 13.5 µM)
% plasma binding (Plasma binding): 99.9%
free compound (Plasma binding): no detectable free compound
IC50 [3]: 4.3 µg/mL (≈ 12.6 µM)
Human Liver Microsomes Intrinsic Clearance (CLint): 4.35 mL/min/g liver
IC50 (CYP (isoform not given)): > 33 µM
inhibition of CYP (CYP [4]): no detectable inhibition

Cc1cc(F)ccc1-c1cccc(-c2cn(C3CCSCC3)nn2)c1 [Compound 39735]
MIC (bacteria): 35 µg/mL (≈ 99 µM)

Cc1cc(F)ccc1-c1cccc(Nc2ccc(C#C[Si](C)(C)C)cc2)n1 [Compound 39715]
MIC (bacteria): 75 µg/mL (≈ 200 µM)

Cc1cc(F)ccc1-c1cc(NC(=O)c2ccco2)ccn1 [Compound 39717]
MIC (bacteria): 50 µg/mL (≈ 169 µM)

Cc1cc(F)ccc1-c1cccc(Nc2ccc(S(C)(=O)=O)cc2)c1 [Compound 39734]
MIC (bacteria): 28 µg/mL (≈ 78.8 µM)
IC50 (bacteria): 22 µg/mL (≈ 61.9 µM)

Cc1ncc2n1-c1ccc(Cl)cc1C(c1ccccc1F)=NC2 [Midazolam control, Midazolam]
Human Liver Microsomes Intrinsic Clearance (CLint) [5]: 9.04 mL/min/g liver

Cc1cc(F)ccc1-c1ccc(-c2cn(-c3ccncc3)nn2)cc1 [Compound 39730]
MIC (bacteria): 66 µg/mL (≈ 200 µM)

Cc1cc(F)ccc1-c1cccc(Nc2ccc(N=[N+]=[N-])cc2)n1 [Compound 39714]
MIC (bacteria): 64 µg/mL (≈ 200 µM)

Cc1cc([N+](=O)[O-])ccc1-c1cccc(Nc2ccncc2)n1 [Compound 39709]
MIC (bacteria): 117 µg/mL (≈ 382 µM)

Cc1cc(F)ccc1-c1cccc(Nc2ccncc2)n1 [Compound 2170]
MIC (bacteria): 14 µg/mL (≈ 50.1 µM)
IC50 (bacteria): 6.8 µg/mL (≈ 24.3 µM)

Cc1cc(F)ccc1-c1cccc(NC(=O)c2ccco2)c1 [Compound 39733]
MIC (bacteria): 29 µg/mL (≈ 98.2 µM)
IC50 (bacteria): 16 µg/mL (≈ 54.2 µM)

c1ccc(-c2cccc(-c3cn(-c4ccncc4)nn3)c2)cc1 [Compound 39748]
Cytotoxicity at 10× MIC HuVEC [1]: 15
Cytotoxicity at 20× MIC HuVEC [1]: 21
Cytotoxicity at 10× MIC HeLa [2]: 14
Cytotoxicity at 20× MIC HeLa [2]: 14
% serum binding (Serum binding): 99.7%
MIC (bacteria): 7.6 µg/mL (≈ 25.5 µM)
IC50 (bacteria): 2.6 µg/mL (≈ 8.71 µM)
% plasma binding (Plasma binding): 99.7%
IC50 [3]: 2.6 µg/mL (≈ 8.71 µM)
Human Liver Microsomes Intrinsic Clearance (CLint): 1.28 mL/min/g liver
IC50 (CYP (isoform not given)): 1.48 µM

Cc1cc(F)ccc1-c1cccc(-c2cn(-c3cccc4ncccc34)nn2)c1 [Compound 39739]
MIC (bacteria): 38 µg/mL (≈ 99.9 µM)

Cc1cc(F)ccc1-c1cccc(NC(=O)c2cccc(Cl)c2)n1 [Compound 39720]
Cytotoxicity at 10× MIC HuVEC [1]: 10
Cytotoxicity at 20× MIC HuVEC [1]: 10
Cytotoxicity at 10× MIC HeLa [2]: 8
Cytotoxicity at 20× MIC HeLa [2]: 8
MIC (bacteria): 4.3 µg/mL (≈ 12.6 µM)
IC50 (bacteria): 2.4 µg/mL (≈ 7.04 µM)
IC50 [3]: ~34.1 µg/mL (≈ 100 µM)
Human Liver Microsomes Intrinsic Clearance (CLint): 1.51 mL/min/g liver
solubility in test medium [6]: *

c1ccc(-c2cccc(Nc3ccncc3)n2)cc1 [Compound 39711]
MIC (bacteria): 6.2 µg/mL (≈ 25.1 µM)
IC50 (bacteria): 3.7 µg/mL (≈ 15 µM)

Cc1cc(F)ccc1-c1cccc(-c2cn(-c3ccncc3)nn2)c1 [Compound 39724]
Cytotoxicity at 10× MIC HuVEC [1]: 16
Cytotoxicity at 20× MIC HuVEC [1]: 19
Cytotoxicity at 10× MIC HeLa [2]: 11
Cytotoxicity at 20× MIC HeLa [2]: 14
% serum binding (Serum binding): 94.6%
MIC (bacteria): 3.3 to 4.1 µg/mL (≈ 9.99 to 12.4 µM)
IC50 (bacteria): 1.6 to 2.3 µg/mL (≈ 4.84 to 6.96 µM)
% plasma binding (Plasma binding): 99.5%
IC50 [3]: 6.6 µg/mL (≈ 20 µM)
Human Liver Microsomes Intrinsic Clearance (CLint): 0.37 mL/min/g liver
IC50 (CYP (isoform not given)): 3.55 µM

Cc1cc(F)ccc1-c1cccc(NS(=O)(=O)c2cccc3c(N(C)C)cccc23)n1 [Compound 39713]
MIC (bacteria): 87 µg/mL (≈ 200 µM)

Cc1cc(F)ccc1-c1cccc(Nc2ccc([N+](=O)[O-])c3nonc23)n1 [Compound 39722]
MIC (bacteria): 73 µg/mL (≈ 200 µM)

Cc1cc(F)ccc1-c1cccc(NC(=O)c2ccccc2)n1 [Compound 39721]
MIC (bacteria): 20 µg/mL (≈ 65.3 µM)

Cc1cc(F)ccc1-c1cccc(Nc2ccncc2)c1 [Compound 39744]
MIC (bacteria): 14 µg/mL (≈ 50.3 µM)

Cc1cc(F)ccc1-c1cccc(Nc2ccccc2)n1 [Compound 39704]
Cytotoxicity at 10× MIC HuVEC [1]: 15
Cytotoxicity at 20× MIC HuVEC [1]: 21
Cytotoxicity at 10× MIC HeLa [2]: 11
Cytotoxicity at 20× MIC HeLa [2]: 11
IC50 for CYP inhibition over the MIC (CYP [7]): more than 5 ×
% serum binding (Serum binding): 100%
MIC (bacteria): 1.7 to 3.5 µg/mL (≈ 6.11 to 12.6 µM)
IC50 (bacteria): 0.9 to 2.8 µg/mL (≈ 3.23 to 10.1 µM)
% plasma binding (Plasma binding): 99.9%
free compound (Plasma binding): no detectable free compound
IC50 [3]: 11 µg/mL (≈ 39.5 µM)
Human Liver Microsomes Intrinsic Clearance (CLint): 5.38 mL/min/g liver
solubility in test medium [6]: *
IC50 (CYP (isoform not given)): 13.5 µM

Cc1cc(F)ccc1-c1cccc(NC(=O)c2ccccc2)c1 [Compound 39731]
Cytotoxicity at 10× MIC HuVEC [1]: 14
Cytotoxicity at 20× MIC HuVEC [1]: 14
Cytotoxicity at 10× MIC HeLa [2]: 8
Cytotoxicity at 20× MIC HeLa [2]: 10
% serum binding (Serum binding): 99.7%
MIC (bacteria): 7.6 µg/mL (≈ 24.9 µM)
IC50 (bacteria): 1.6 to 3.4 µg/mL (≈ 5.24 to 11.1 µM)
% plasma binding (Plasma binding): 99.8%
IC50 [3]: ~60 µg/mL (≈ 196 µM)
Human Liver Microsomes Intrinsic Clearance (CLint): 2.12 mL/min/g liver
solubility in test medium [6]: *
IC50 (CYP (isoform not given)): > 33 µM
inhibition of CYP (CYP [4]): no detectable inhibition

Cc1cc(F)ccc1-c1cccc(NC(=O)c2cccc(Cl)c2)c1 [Compound 39732]
MIC (bacteria): 8.5 µg/mL (≈ 25 µM)
IC50 (bacteria): 5.9 µg/mL (≈ 17.4 µM)

Cc1cc(F)ccc1-c1cc(Nc2ccccc2)ccn1 [Compound 39712]
MIC (bacteria): 21 µg/mL (≈ 75.5 µM)

c1ccc(COc2ccc(-c3cccc(Nc4ccncc4)n3)cc2)cc1 [Compound 39718]
MIC (bacteria): 35 µg/mL (≈ 99 µM)

c1cc(Nc2ccncc2)nc(C2CCCCC2)c1 [Compound 39710]
MIC (bacteria): 51 µg/mL (≈ 201 µM)
